Source: patent US11370774B2, “Substituted benzofuran, benzopyrrole, benzothiophene, and structurally related complement inhibitors” (BioCryst Pharmaceuticals, Inc., priority 2018, dated 2022)

target: Factor D (Homo sapiens (Human), UniProt P00746); assay: Factor D esterolytic assay (Z-Lys-SBzl substrate, DTNB, 405 nm); type: biochemical; settings: Z-Lys-SBzl 1.29 mM, pH 7.5, 10% DMSO, tested a minimum of three times, read-out: Measured Ki (IC50) Value for Compounds: IC50
Outline: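 Thioester hydrolysis (Z-Lys-SBzl, 1.29 mM) by human Factor D ([…]) detected through DTNB color at 405 nm over 600 sec, minus 690 nm background. Buffer: 100 mM HEPES pH 7.5, 500 mM NaCl, 10% DMSO; optional room-temperature preincubation before substrate. IC50 derived from percent rate inhibition; at least three runs.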

Chain of Factor D (P00746 26-253): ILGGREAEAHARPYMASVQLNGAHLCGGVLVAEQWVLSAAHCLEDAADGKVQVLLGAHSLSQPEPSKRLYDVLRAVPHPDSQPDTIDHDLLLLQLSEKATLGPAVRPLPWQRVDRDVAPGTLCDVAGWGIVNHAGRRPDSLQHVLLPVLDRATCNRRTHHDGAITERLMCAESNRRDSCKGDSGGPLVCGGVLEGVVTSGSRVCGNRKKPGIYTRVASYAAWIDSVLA

Row | SMILES | IC50 [µM]
1 | Cc1nc2cc(C(=O)Nc3ccccc3CC(=O)O)cc(-c3cccc(CN)c3)c2n1C [Compound 30d, 2-(2-(7-(3-(aminomethyl)phenyl)-1,2-dimethyl-1H-benzo[d]imidazole-5-carboxamido)phenyl)acetic acid] | > 10
2 | NCc1cccc(-c2cc(C(=O)Nc3ccccc3CC(=O)O)cc3cc[nH]c23)c1 [Compound 158c, 2-(2-(7-(3-(aminomethyl)phenyl)-1H-indole-5-carboxamido)phenyl)acetic acid] | 1 to 10
3 | NCc1ccccc1-c1cc(COc2ccccc2CC(=O)O)cc2ccoc12 [Compound 243d, 2-(2-((7-(2-(aminomethyl)phenyl)benzofuran-5-yl)methoxy)phenyl)acetic acid] | > 10
4 | CC(C)n1ccc2c(-c3cccc(CN)c3)cc(COc3ccc(F)cc3CC(=O)O)cc21 [Compound 474c, 2-(2-((4-(3-(aminomethyl)phenyl)-1-isopropyl-1H-indol-6-yl)methoxy)-5-fluorophenyl)acetic acid] | < 1
5 | COc1ccc(CC(=O)O)c(OCc2cc(-c3ccnc(CN)c3F)c3oc(F)cc3c2)c1 [Compound 483c, 2-(2-((7-(2-(aminomethyl)-3-fluoropyridin-4-yl)-2-fluorobenzofuran-5-yl)methoxy)-4-methoxyphenyl)acetic acid] | < 1
6 | NCc1cccc(-c2cc(C(=O)Nc3ccccc3CC(=O)O)cc3c2cnn3CC2CC2)c1 [Compound 10d, 2-(2-(4-(3-(aminomethyl)phenyl)-1-(cyclopropylmethyl)-1H-indazole-6-carboxamido)phenyl)acetic acid] | < 1
7 | Cc1cc(-c2ccc(CC(=O)O)c(OCc3cc(-c4cccc(CN)c4)c4occc4c3)c2)cnc1F [Compound 322c, 2-(2-((7-(3-(aminomethyl)phenyl)benzofuran-5-yl)methoxy)-4-(6-fluoro-5-methylpyridin-3-yl)phenyl)acetic acid] | < 1
8 | NCc1cccc(-c2cc(COc3cc(CN)ccc3CC(=O)O)cc3ccoc23)c1 [Compound 236d, 2-(4-(aminomethyl)-2-((7-(3-(aminomethyl)phenyl)benzofuran-5-yl)methoxy)phenyl)acetic acid] | < 1

Next, values leading:

Row | IC50 [µM] | SMILES
9 | < 1 | NCc1cccc(-c2cc(COc3ccccc3C(NC(=O)C3CC3)C(=O)O)cc3ccoc23)c1 (stereo not drawn) [Compound 223e, 2-(2-((7-(3-(aminomethyl)phenyl)benzofuran-5-yl)methoxy)phenyl)-2-(cyclopropanecarboxamido)acetic acid]
10 | < 1 | NCc1cc(F)cc(-c2cc(COc3ccccc3CC(=O)O)cc3[nH]ccc23)c1 [Compound 69e, 2-(2-((4-(3-(aminomethyl)-5-fluorophenyl)-1H-indol-6-yl)methoxy)phenyl)acetic acid]
11 | < 1 | NCc1cccc(-c2cc(COc3ccccc3CC(=O)O)nc3[nH]ccc23)c1F [Compound 86b, 2-(2-((4-(3-(aminomethyl)-2-fluorophenyl)-1H-pyrrolo[2,3-b]pyridin-6-yl)methoxy)phenyl)acetic acid]
12 | < 1 | Cn1ccc2c(-c3ccnc(CN)c3)cc(COc3ccccc3CC(=O)O)cc21 [Compound 133c, 2-(2-((4-(2-(aminomethyl)pyridin-4-yl)-1-methyl-1H-indol-6-yl)methoxy)phenyl)acetic acid]
13 | < 1 | NCc1cccc(-c2cc(COc3cc(N)ccc3CC(=O)O)cc3ccoc23)c1 [Compound 197c, 2-(4-amino-2-((7-(3-(aminomethyl)phenyl)benzofuran-5-yl)methoxy)phenyl)acetic acid]
14 | < 1 | CN(Cc1ccccc1CC(=O)O)c1cc(-c2cccc(CN)c2)c2occc2c1 [Compound 378d, 2-(2-(((7-(3-(aminomethyl)phenyl)benzofuran-5-yl)(methyl)amino)methyl)phenyl)acetic acid]
15 | < 1 | NCc1cc(-c2cc(COc3cc(F)ccc3CC(=O)O)cc3cc(F)oc23)ccn1 [Compound 523b, 2-(2-((7-(2-(aminomethyl)pyridin-4-yl)-2-fluorobenzofuran-5-yl)methoxy)-4-fluorophenyl)acetic acid]
